Experiment [1] deals with T1, rat TRPA1 (Rattus norvegicus, UniProt Q6RI86).
T1 construct: expressed in transfected cells; host or cells: HEK-293
As to the kind of experiment: TRPA1-mediated elevation of intracellular Ca2+ (Fluo-4) in transfected HEK-293 cells. It is filed as cell-based. The method, then:
(§1) Assays of rat TRPA1, TRPV2, TRPV3, TRPV4, and TRPM8 or human TRPV1 mediated elevation of intracellular Ca ^2+ in transfected HEK-293 cells were performed with a continuous monitoring of [Ca ^2+]i during the experiments. […] Cell fluorescence before and after the addition of various concentrations of test compounds was measured, normalizing the effects against the response to ionomycin (IM, 4 μM). The values of the effect on [Ca^2+]i in HEK-293 cells not transfected were used as baseline and subtracted from the values obtained from transfected cells. For TRPA1, agonist efficacy was expressed as a percentage of the effect on [Ca ^2+]i observed with 100 μM allylisothiocyanate. […] In the TRPV3 assay, TRPV3-expressing HEK293 cells were first sensitized with the structurally unrelated agonist 2-aminoethoxydiphenyl borate (100 μM). Antagonist/desensitizing behavior is evaluated against the agonist of the TRP analyzed by adding the compounds directly in the quartz cuvette 5 min before stimulation of cells with the agonist. […] Dose-response curve fitting (sigmoidal dose-response variable slope) and parameter estimation were performed with Graph-Pad Prism8 (GraphPad Software Inc., San Diego, CA, USA). All determinations were performed at least in triplicate.

Experiment [2] concerns the target T2, human TRPV1 (Homo sapiens, UniProt Q8NER1).
T2 construct: expressed in transfected cells; host or cells: HEK-293
Put plainly: TRPV1-mediated elevation of intracellular Ca2+ (Fluo-4) in transfected HEK-293 cells. The format is cell-based. The method, then: as §1

Experiment [3] deals with T3, rat TRPM8 (Rattus norvegicus, UniProt Q8R455).
T3 construct: expressed in transfected cells; host or cells: HEK-293
T3 sequence (Q8R455 whole entry): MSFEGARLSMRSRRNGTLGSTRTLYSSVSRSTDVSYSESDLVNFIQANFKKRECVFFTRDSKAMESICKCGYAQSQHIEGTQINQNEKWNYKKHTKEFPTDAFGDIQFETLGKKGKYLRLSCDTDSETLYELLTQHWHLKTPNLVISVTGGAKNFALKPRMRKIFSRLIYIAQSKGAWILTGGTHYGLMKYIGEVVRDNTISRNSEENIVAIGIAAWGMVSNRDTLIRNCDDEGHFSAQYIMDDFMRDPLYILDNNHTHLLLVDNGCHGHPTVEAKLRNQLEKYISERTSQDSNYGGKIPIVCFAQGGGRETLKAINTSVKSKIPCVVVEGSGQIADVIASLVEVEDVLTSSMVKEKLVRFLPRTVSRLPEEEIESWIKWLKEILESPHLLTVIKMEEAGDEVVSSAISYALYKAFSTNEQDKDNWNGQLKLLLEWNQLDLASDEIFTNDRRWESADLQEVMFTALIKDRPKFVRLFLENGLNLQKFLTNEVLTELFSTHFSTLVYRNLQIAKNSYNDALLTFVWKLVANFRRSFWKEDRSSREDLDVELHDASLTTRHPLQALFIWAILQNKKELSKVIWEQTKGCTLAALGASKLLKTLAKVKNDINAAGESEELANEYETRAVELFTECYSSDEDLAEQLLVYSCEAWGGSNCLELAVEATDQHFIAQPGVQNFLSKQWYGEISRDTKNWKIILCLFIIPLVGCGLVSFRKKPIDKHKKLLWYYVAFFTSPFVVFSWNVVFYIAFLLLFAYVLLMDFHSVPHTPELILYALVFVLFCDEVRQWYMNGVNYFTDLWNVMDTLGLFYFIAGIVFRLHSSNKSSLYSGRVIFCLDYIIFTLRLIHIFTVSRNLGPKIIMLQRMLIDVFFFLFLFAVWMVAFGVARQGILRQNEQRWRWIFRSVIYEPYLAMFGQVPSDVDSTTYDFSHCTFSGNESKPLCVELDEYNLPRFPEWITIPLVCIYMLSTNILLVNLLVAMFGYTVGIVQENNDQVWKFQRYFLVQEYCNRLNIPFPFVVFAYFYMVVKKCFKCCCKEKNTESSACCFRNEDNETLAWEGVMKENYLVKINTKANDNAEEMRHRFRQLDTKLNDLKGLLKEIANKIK
As to the kind of experiment: TRPM8 antagonism of icilin-induced intracellular Ca2+ elevation (Fluo-4) in transfected HEK-293 cells. The format is cell-based. The note with it: IC50 TRPM8, antagonist; compound added 5 min before agonist icilin 0.25 μM. The method, then: as §1

Experiment [4] addresses T4, rat TRPV2 (Rattus norvegicus, UniProt Q9WUD2).
T4 construct: expressed in transfected cells; host or cells: HEK-293
T4 sequence (Q9WUD2 1-761): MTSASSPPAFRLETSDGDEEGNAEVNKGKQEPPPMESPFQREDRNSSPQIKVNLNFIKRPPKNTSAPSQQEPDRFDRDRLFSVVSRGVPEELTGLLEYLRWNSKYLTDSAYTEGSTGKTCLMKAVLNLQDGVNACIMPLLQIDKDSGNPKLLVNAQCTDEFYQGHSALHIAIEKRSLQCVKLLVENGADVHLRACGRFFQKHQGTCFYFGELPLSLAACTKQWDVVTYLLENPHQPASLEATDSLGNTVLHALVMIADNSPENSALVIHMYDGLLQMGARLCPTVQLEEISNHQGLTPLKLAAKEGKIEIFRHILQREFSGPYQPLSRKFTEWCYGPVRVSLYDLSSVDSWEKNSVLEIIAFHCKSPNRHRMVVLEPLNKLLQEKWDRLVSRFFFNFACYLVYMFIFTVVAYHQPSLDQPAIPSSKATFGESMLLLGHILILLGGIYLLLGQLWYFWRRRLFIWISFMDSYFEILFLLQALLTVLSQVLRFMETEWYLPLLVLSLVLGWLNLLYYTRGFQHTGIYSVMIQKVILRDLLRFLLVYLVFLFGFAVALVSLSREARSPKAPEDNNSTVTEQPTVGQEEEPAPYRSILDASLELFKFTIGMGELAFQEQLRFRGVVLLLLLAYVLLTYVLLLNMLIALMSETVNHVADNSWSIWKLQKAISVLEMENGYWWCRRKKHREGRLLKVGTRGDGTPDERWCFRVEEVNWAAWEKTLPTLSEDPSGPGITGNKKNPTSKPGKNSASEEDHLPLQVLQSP
Put plainly: TRPV2-mediated elevation of intracellular Ca2+ (Fluo-4) in transfected HEK-293 cells. The format is cell-based. On the procedure: as §1

Experiment [5] has as its target T5, rat TRPV4 (Rattus norvegicus, UniProt Q9ERZ8).
T5 construct: expressed in transfected cells; host or cells: HEK-293
As to the kind of experiment: TRPV4-mediated elevation of intracellular Ca2+ (Fluo-4) in transfected HEK-293 cells. The format is cell-based. The method, then:
as §1

Experiment [6] has as its target T1, rat TRPA1. Details: method as in PMID 21175579. As to conditions: cited from earlier work; for TRPA1 Efficacy (%ITC 100 μM): percentage of the effect of 100 μM allylisothiocyanate.
The target of experiment [7] is T2, human TRPV1. Further details: method as in PMID 21175579. As to conditions: cited from earlier work; for TRPV1 Efficacy (% IM 4 μM): percentage of the response to ionomycin 4 μM.
Experiment [8] addresses T3, rat TRPM8. Details: method as in PMID 21175579.
Experiment [9] deals with T4, rat TRPV2. Further details: method as in PMID 21175579, PMID 21726418. The note with it: cited from earlier work; for IC50: against agonist CBD 2 μM; for TRPV2 Efficacy (% IM 4 μM): percentage of the response to ionomycin 4 μM.
In the next experiment the target is T6, rat TRPV3 (Rattus norvegicus, UniProt Q4QYD9).
T6 construct: expressed in transfected cells; host or cells: HEK-293
T6 sequence (Q4QYD9 1-791): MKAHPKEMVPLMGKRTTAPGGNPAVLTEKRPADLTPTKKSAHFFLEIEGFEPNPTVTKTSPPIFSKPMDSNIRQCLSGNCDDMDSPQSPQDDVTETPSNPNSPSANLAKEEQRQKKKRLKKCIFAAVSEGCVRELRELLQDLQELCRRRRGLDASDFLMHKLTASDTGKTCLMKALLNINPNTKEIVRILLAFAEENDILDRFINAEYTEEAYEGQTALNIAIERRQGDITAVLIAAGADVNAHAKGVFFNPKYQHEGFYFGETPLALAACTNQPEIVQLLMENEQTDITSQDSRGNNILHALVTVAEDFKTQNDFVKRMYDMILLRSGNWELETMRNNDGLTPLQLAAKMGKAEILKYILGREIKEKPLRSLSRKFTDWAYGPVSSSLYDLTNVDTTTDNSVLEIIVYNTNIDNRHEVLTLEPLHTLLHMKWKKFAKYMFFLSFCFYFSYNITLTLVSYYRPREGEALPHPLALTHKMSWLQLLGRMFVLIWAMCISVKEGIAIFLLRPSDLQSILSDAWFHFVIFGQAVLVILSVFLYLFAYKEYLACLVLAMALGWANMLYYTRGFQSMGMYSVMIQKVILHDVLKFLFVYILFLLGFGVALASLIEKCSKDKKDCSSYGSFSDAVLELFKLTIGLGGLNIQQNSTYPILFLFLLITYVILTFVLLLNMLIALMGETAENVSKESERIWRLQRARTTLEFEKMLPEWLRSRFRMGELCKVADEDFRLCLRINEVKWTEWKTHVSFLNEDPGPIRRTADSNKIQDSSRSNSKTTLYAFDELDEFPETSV
Further details: method as in PMID 21175579, PMID 21726418. As to conditions: cited from earlier work; for TRPV3 Efficacy (% IM 4 μM): percentage of the response to ionomycin 4 μM; for EC50: read-out: TRPV3 Potency EC50, half-maximal increase in [Ca2+]i.

The target of experiment [10] is T5, rat TRPV4. Further details: method as in PMID 21175579, PMID 21726418.
Setting [11] is: percentage of the response to ionomycin 4 μM, HEK-293.
Setting [12] is: percentage of the response to ionomycin 4 μM; cited from earlier work.

“And” between values parts separate entries of the source, which are not always exact repeats. Equal entries are not always repeated. Where two headings read alike, the source gives them in different places. Where only a bound is given, the exact number is not on record here.

T2 sequence (Q8NER1 whole entry): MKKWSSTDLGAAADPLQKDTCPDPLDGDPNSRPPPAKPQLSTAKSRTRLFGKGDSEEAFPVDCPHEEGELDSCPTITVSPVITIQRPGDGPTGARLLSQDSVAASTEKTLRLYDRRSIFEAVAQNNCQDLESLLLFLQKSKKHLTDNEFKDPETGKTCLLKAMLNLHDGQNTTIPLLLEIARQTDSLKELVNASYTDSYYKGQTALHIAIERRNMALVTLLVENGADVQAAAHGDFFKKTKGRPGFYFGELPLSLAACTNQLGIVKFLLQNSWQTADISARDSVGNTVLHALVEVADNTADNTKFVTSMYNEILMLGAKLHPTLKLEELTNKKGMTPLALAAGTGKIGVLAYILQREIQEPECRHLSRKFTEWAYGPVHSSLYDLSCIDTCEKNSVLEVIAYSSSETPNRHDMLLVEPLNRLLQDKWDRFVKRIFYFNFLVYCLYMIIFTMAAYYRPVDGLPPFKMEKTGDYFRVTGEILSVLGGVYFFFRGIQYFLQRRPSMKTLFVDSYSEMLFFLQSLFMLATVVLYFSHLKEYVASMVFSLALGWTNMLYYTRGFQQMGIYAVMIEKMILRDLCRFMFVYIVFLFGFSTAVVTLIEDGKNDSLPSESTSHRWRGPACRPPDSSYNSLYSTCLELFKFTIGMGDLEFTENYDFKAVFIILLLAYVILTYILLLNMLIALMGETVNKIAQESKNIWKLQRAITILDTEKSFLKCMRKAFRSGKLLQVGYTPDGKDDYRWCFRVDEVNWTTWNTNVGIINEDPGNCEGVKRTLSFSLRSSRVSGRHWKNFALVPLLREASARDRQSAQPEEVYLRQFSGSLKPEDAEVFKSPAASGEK
T1 sequence (Q6RI86 whole entry): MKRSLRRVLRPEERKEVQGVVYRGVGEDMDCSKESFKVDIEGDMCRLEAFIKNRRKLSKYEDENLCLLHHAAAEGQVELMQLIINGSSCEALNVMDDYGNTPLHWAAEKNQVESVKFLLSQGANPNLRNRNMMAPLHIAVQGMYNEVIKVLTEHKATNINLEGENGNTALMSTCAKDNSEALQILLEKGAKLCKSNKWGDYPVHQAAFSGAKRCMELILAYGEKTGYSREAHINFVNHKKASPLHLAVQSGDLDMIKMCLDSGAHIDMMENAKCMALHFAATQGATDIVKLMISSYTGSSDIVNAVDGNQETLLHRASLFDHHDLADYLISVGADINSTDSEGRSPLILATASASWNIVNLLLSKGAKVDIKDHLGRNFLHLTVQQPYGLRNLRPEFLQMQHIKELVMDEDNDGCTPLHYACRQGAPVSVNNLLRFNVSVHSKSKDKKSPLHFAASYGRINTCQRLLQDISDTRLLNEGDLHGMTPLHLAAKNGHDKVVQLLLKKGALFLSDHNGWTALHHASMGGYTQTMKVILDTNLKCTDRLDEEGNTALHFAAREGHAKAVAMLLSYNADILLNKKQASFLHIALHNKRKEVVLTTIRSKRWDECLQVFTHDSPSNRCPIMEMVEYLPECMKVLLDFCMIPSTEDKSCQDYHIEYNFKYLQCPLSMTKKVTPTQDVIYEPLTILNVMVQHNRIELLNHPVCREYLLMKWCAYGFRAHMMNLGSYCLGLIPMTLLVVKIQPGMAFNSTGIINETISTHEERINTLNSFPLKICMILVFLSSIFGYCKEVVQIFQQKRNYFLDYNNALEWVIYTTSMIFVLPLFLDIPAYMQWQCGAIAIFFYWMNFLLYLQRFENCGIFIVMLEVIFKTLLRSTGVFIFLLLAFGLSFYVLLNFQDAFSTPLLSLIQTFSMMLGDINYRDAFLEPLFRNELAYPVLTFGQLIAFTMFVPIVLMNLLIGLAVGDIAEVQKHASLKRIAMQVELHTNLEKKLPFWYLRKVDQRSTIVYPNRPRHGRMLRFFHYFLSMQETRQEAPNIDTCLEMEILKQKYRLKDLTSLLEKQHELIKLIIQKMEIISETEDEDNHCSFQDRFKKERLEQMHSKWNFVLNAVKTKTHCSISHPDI
T5 sequence (Q9ERZ8 whole entry): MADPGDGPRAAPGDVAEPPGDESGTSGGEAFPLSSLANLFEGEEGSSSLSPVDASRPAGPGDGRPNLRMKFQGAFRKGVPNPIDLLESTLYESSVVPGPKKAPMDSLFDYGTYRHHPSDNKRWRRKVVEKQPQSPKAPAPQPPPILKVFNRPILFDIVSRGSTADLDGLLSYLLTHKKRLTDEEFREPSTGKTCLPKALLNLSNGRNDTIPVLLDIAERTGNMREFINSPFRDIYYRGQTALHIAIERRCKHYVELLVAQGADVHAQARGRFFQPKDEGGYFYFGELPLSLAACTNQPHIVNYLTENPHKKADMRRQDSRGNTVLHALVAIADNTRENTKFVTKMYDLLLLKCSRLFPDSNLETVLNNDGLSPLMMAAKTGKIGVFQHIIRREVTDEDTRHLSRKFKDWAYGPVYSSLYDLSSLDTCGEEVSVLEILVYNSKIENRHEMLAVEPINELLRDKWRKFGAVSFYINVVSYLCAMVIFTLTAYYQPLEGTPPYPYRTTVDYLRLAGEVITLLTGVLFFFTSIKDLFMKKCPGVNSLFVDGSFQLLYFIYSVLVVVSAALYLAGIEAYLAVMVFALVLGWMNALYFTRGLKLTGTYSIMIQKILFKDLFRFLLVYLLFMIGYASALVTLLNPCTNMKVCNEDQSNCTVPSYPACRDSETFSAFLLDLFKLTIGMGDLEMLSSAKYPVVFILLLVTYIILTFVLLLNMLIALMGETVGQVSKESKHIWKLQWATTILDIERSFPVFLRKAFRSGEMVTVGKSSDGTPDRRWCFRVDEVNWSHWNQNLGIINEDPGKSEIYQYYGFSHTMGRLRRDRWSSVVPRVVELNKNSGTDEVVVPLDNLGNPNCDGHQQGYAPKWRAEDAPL

For orientation: EC50 means the concentration that produces a half-maximal response. In general, IC50 refers to the concentration that gives 50% inhibition. Take `CCCCCCC(C)(C)c1cc(O)c2c(c1)OC(C)(C)[C@@H]1CC=C(C)C[C@@H]21` [6b, Depentyl-α,α-dimethylheptyl-Δ^8-tetrahydrocannabinol]: the EC50 on rat TRPA1 [1] was 4.8 ± 1.1 µM; on human TRPV1 [2], greater than 100 µM; at rat TRPV2 [4] it was 0.25 ± 0.03 µM; at rat TRPV4 [5], 16.1 ± 21.6 µM. The IC50 at rat TRPA1 [1] was 6 ± 0.9 µM; against human TRPV1 [2] it was greater than 100 µM; on rat TRPM8 [3] it was 39.9 ± 6.9 µM; at rat TRPV2 [4] (IC50 TRPV2, antagonist/desensitizing, compound added 5 min before agonist CBD 2 μM), 45.8 µM and > 50 µM; at rat TRPV4 [5], greater than 100 µM. Besides, the “TRPA1 Efficacy (%ITC 100 μM)” value on rat TRPA1 [1] (percentage of the effect of 100 μM allylisothiocyanate on [Ca2+]i, HEK-293) is listed as 124.2 ± 4.0%. Besides, at human TRPV1 [2] (setting [11]), the “TRPV1 Efficacy (% IM 4 μM)” value was 15.3%. The “TRPV2 Efficacy (% IM 4 μM)” value on rat TRPV2 [4] (setting [11]) is < 10% and 10.5 ± 0.02%. Moreover, the “TRPV4 Efficacy (% IM 4 μM)” value on rat TRPV4 [5] (setting [11]) is <10 <10% and 12.1 ± 0.2%.
Turning to `CCCCCc1cc(O)c2c(c1)OC(C)(CCC=C(C)C)C=C2` (stereo not drawn) [8a, cannabichromene], the IC50 at rat TRPA1 [6] (against agonist AITC 100 μM, read-out: IC50 TRPA1 (converted)) is 0.37 µM; on human TRPV1 [7] (against agonist capsaicin 0.1 μM, read-out: IC50 TRPV1), greater than 50 µM; at rat TRPM8 [8] (against agonist icilin 0.25 μM; read-out: IC50 TRPM8; cited from earlier work), 40.7 µM; on rat TRPV2 [9] (read-out: IC50 TRPV2 (converted)), 6.5 µM; on rat TRPV3 (read-out: IC50 TRPV3, against agonist thymol 100 μM), greater than 100 µM; at rat TRPV4 [10] (against agonist GSK1016790A 10 nM; read-out: IC50 TRPV4; cited from earlier work), 9.9 µM. For the same compound, the “TRPA1 Efficacy (%ITC 100 μM)” value on rat TRPA1 [6] was 119.4 ± 3.1%. Moreover, the “TRPV1 Efficacy (% IM 4 μM)” value on human TRPV1 [7] is less than 10%. Further, the “TRPV2 Efficacy (% IM 4 μM)” value on rat TRPV2 [9] is listed as less than 10%. Moreover, the “TRPV3 Efficacy (% IM 4 μM)” value on rat TRPV3 was 20.2 ± 0.4%. In addition, the EC50 on rat TRPV3 was 1.9 µM; on rat TRPV4 [10] (half-maximal increase in [Ca2+]i; read-out: TRPV4 Potency EC50; cited from earlier work), 0.6 µM. In addition, the “TRPV4 Efficacy (% IM 4 μM)” value at rat TRPV4 [10] (setting [12]) is 22.9 ± 1.2%.
Take `CCCCCc1cc(O)c2c(c1)OC(C)(C)[C@@H]1CC=C(C)C[C@@H]21` [6a, Δ^8-tetrahydrocannabinol]: the “TRPA1 Efficacy (%ITC 100 μM)” value on rat TRPA1 [6] is 117.0 ± 12.0%. The EC50 at rat TRPA1 [6] (read-out: TRPA1 Potency EC50, half-maximal increase in [Ca2+]i) is 0.23 µM; on rat TRPV3 it was 9.5 µM and 5.3 µM; on rat TRPV4 [10] (read-out: TRPV4 Potency EC50; half-maximal increase in [Ca2+]i; cited from earlier work), 16.1 ± 4.5 µM. The “TRPV1 Efficacy (% IM 4 μM)” value on human TRPV1 [7] is less than 10%. The IC50 was 0.16 µM at rat TRPM8 [8] (read-out: IC50 TRPM8; against agonist icilin 0.25 μM; cited from earlier work) and 0.8 µM on rat TRPV2 [9] (read-out: IC50 TRPV2). For the same compound, the “TRPV2 Efficacy (% IM 4 μM)” value on rat TRPV2 [9] was 53.0 ± 1.4% and 39.9 ± 2.1%. Also, the “TRPV3 Efficacy (% IM 4 μM)” value on rat TRPV3 is 18.2 ± 1.0% and 13.1 ± 2.4%. Moreover, on rat TRPV4 [10] (setting [12]), the “TRPV4 Efficacy (% IM 4 μM)” value was <10 <10% and 15.3 ± 1.5%.

The record behind these values is PMC8391922, “The Combined Effect of Branching and Elongation on the Bioactivity Profile of Phytocannabinoids. Part I: Thermo-TRPs” (Biomedicines, 2021).
